Source: publication PMC7309560, “Discovery of Small Molecule Inhibitors Targeting the Sonic Hedgehog” (Frontiers in Chemistry, 2020)
Read-outs that look alike come from different tables or passages of the source.

How the values were obtained:
[1] = tested on: Hh signaling pathway (8 × Gli-binding site luciferase reporter, Shh-LIGHT2 cells); experiment: Dual-luciferase reporter assay in Shh-LIGHT2 cells; format: cell-based; conditions: for inhibition at 5 µM: read-out: Inhibition rate for cell assay at 5 μM; for IC50: Shh Light2, 36 h, ShhN-conditioned medium, 36 h, mean ± SD for three independent experiments
Experimental: A dual-luciferase reporter assay was performed as previously described (Zhan et al., [2014]; Kong et al., [2015]). Shh-LIGHT2 cells, an Hh activity reporter cell line derived from NIH-3T3 cells by stably expressing 8 × Gli-binding site luciferase reporter (8 × GBS-luciferase) plasmid provided by Sasaki et al. ([1999]) and pRL-Renilla luciferase plasmid, were seeded into 96-well plates. After 24 h, ShhN-conditioned medium (ShhN CM) was added, and cells were exposed to molecules. The luciferase activities of cells were measured 36 h later with a Dual-Luciferase Reporter Assay System (E1960, Promega), according to the manufacturer's instructions, in a luminometer (Molecular Devices, Sunnyvale, CA). The firefly luciferase values were normalized to the Renilla luciferase activities, and IC50 values were fitted with the Hill equation with OriginPro 9.
We further tested the 45 Shh-binding compounds to assess their effects on the Hh signaling pathway. […] Compounds with similar framework were merged, resulting in seven hits.
All 22 derivatives of 7 were tested at 5 μM with the dual-luciferase reporter cell assay (Table S6).

[2] = tested on: Gli1 mRNA expression in Ptch+/−p53−/− medulloblastoma cells; experiment: Real-time PCR of Gli1 mRNA in Ptch+/-p53-/- medulloblastoma cells; format: cell-based, mice; conditions: RT-qPCR, 36 h exposure, normalized to GUSB
Experimental: Ptch^+/−p53^−/− medulloblastoma cells were cultivated from spontaneous medulloblastoma developed by ptch^+/−; p53^−/− mice. All procedures were preapproved by the Animal Care and Use Committee of Fudan University and performed according to institutional policies. Briefly, medulloblastoma tissues were mechanically minced and digested by collagenase. The cells were routinely cultured using Neurobasal A medium (Invitrogen) plus B-27 supplement (Invitrogen), EGF 20 ng/mL (Invitrogen), bFGF 20 ng/mL (Invitrogen), non-essential amino acids, N-acetylcysteine 60 μg/mL. GDC-0449 was purchased from Biovision (Milpitas, CA). […]
Total RNA was extracted from cells using an RNAiso Plus Kit (TaKaRa, Dalian, China) according to the manufacturer's instructions and processed directly to cDNA by reverse transcription with a SuperScript III Kit (TaKaRa, Dalian, China). Semi-quantitative PCR amplification was conducted using Stratagene mx3005p (Agilent). All quantitative PCR amplifications were performed in triplicate with a SYBR Green Kit (TaKaRa, Dalian, China) in an iCycleriQ system (Bio-Rad, Hercules, CA). […]
Levels of the Shh-induced transcription factor Gli1 are higher in Ptch^+/−p53^−/− medulloblastoma from mice than in control tissues as a result of increased Hh signaling activity (Wetmore et al., [2001]). […] We measured the expression of Gli1 mRNA using RT-qPCR (Figure 2). […]

Shh = Shh inhibitory activity in cellular assays, ref Stanton et al., 2009 (Table 1 prints ref. 14), cited from earlier work
ShhN-EGFP = biological target: T1, ShhN-EGFP (Homo sapiens, UniProt Q15465); experiment: Microscale thermophoresis (MST) binding
T1 construct: PET-28(a)-human ShhN (Shh 24-197) plasmid; His (N); made in house; host or cells: Escherichia coli Rosetta (DE3)
T1 sequence (Q15465 24-197): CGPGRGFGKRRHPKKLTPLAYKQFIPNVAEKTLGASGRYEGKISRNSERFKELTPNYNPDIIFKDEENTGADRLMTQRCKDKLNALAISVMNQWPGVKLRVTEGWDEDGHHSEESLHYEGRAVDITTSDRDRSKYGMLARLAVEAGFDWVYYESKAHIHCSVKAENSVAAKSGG
Experimental: Chuanmao Zhang. EGFP gene was subcloned into pET-28(a)-human ShhN vector to build ShhN-EGFP plasmids. All mutations were introduced by PCR and confirmed by sequencing with GENEWIZ (China).
Measurements were performed using a Monolith NT. […] MST-optimized buffer (50 mM Tris·HCl, pH 7.4, 150 mM NaCl, 10 mM MgCl2, 0.1% Tween-20, 0.1% Pluronic-F127, 5% DMSO) was applied. Measurements were carried out using blue LED color with 20% LED power and 40% MST power. The concentration of ShhN-EGFP was adjusted according to the fluorescence. Mean values and standard deviations were calculated from experiments performed at least in triplicate. Nanotemper analysis software V1.5.41 was applied to analyze data.
We used microscale thermophoresis (MST) to quantitatively measure binding constants between the compounds and ShhN (Table S5 and Figure S1). A ShhN-EGFP fusion protein was constructed, expressed, and purified from bacterial cells. In MST binding assays, ShhN-EGFP was kept at a constant concentration according to the fluorescence signal. Different concentrations of the molecules were tested and dissociation constants (Kd) were derived.

ShhN = biological target: T2, ShhN (Homo sapiens, UniProt Q15465); experiment: NanoDSF thermal stability; format: binding; conditions: ShhN 0.2 mg/mL
T2 construct: PET-28(a)-human ShhN (Shh 24-197) plasmid; His (N); made in house; host or cells: Escherichia coli Rosetta (DE3)
T2 sequence (Q15465 24-197): as above
Experimental: Measurements were performed using a Prometheus NT.48 instrument (NanoTemper Inc., Germany). ShhN was diluted to 0.2 mg/mL in buffer contained 10 mM HEPES, pH 7.4, 150 mM NaCl, and 5% DMSO. Measurements were carried out using 70% power with standard Prometheus NT.48 capillaries. The heating was 1.0°C/min from 20 to 95°C.
To gain further insight into the effects of inhibitors against ShhN, a NanoDSF experiment was conducted.

[3] = MST, ShhN-EGFP, mean±SD for three independent experiments, read-out: Kd

| SMILES | inhibition at 5 µM [1] [%] | IC50 [1] [nM] | other results |
| --- | --- | --- | --- |
| CCN1CCN(c2nc(Nc3cccc(Cl)c3)c3cnn(-c4ccccc4)c3n2)CC1 [Compound 7_3d4] | 105 ± 5 | 600 ± 100 |  |
| Nc1nc(Nc2ccccc2F)nc(NCc2ccco2)c1[N+](=O)[O-] [Compound 7_2d9] | 94 ± 3 | 5900 ± 1700 |  |
| CS(=O)(=O)c1ccc(C(=O)Nc2ccc(Cl)c(-c3ccccn3)c2)c(Cl)c1 [GDC-0449] |  |  | Relative mRNA expression of Gli1 (effect in words) [2]: positive control for inhibition of the expression of Gli1 mRNA |
| O=C(C[C@@H]1C/C=C/CCC(=O)O[C@H](c2ccccc2)CNC1=O)NCc1ccc(Cl)cc1 [Robotnikinin] |  | 4400 ± 900 | Relative mRNA expression of Gli1 (effect in words) [2]: did not inhibit Gli1 mRNA expression; IC50 (Shh): 15000 nM; IC50 (Shh; listed as robotnikinin): ~15000 nM |
| CCN(CC)S(=O)(=O)c1ccc(C(=O)Nc2sc3c(c2C(N)=O)CCN(C)C3)cc1 [Compound 4] |  | 2700 ± 200 | MST binding signal / dose-response (in words) (ShhN-EGFP; ShhN-EGFP): did not reach saturation |
| Nc1nc(NCCCN2CCOCC2)nc(NCc2ccco2)c1[N+](=O)[O-] [Compound 7] |  | 2200 ± 300 | Kd (ShhN-EGFP; [3]): 6200 ± 600 nM |
| Nc1nc(Nc2cccc(F)c2)nc(NCc2ccco2)c1[N+](=O)[O-] [Compound 7_2d8] | 101 ± 8 | 2400 ± 400 |  |
| CCN(CC)CCNc1nc(Nc2cccc(Cl)c2)c2cnn(-c3ccccc3)c2n1 [Compound 7_3d3] | 107 ± 1 | ~400 | Thermal stability of ShhN (in words) (ShhN): improved the thermal stability of ShhN better than 7 |
| Nc1nc(NCCN2CCOCC2)nc(NCc2ccco2)c1[N+](=O)[O-] [Compound 7_2d3] | 68 ± 12 | 2600 ± 300 |  |
| Nc1nc(NCC2CCCO2)nc(NCc2ccco2)c1[N+](=O)[O-] (stereo not drawn) [Compound 7_2d2] | 94 ± 4 | 3200 ± 700 |  |
| c1ccc(Nc2nc(NC3CCCCCC3)nc3c2cnn3-c2ccccc2)cc1 [Compound 7_3d2] | 93 ± 1 | 1600 ± 600 |  |
| CCOc1ccc(Nc2nc(N)c([N+](=O)[O-])c(NCc3ccco3)n2)cc1 [Compound 7_2d6] | 97 ± 7 | 2000 ± 800 |  |
| OC(CNCc1ccc2c(c1)OCO2)COc1ccc(-c2csnn2)cc1 (stereo not drawn) [Compound 2] |  | 1700 ± 100 | Kd (ShhN-EGFP): 8400 ± 900 nM |
| c1ccc(COC(CNC2CCCCC2)CNC2CCCCC2)cc1 [Compound 3] |  | 2200 ± 200 | Kd (ShhN-EGFP; [3]): 3100 ± 300 nM |
| Nc1nc(Nc2ccc(Cl)cc2)nc(NCc2ccco2)c1[N+](=O)[O-] [Compound 7_2d7] | 102 ± 3 | 2100 ± 200 |  |
| CCOC(=O)c1c(C)n(-c2ccc(C)cc2)c2ccc(OCC(O)CNCCCO)cc12 (stereo not drawn) [Compound 6] |  | 1400 ± 400 | Kd (ShhN-EGFP; [3]): 5800 ± 500 nM |
| OCCCNCC(O)Cn1c2ccc(Br)cc2c2cc(Br)ccc21 (stereo not drawn) [Compound 5] |  | 2000 ± 300 | Kd (ShhN-EGFP): 4500 ± 600 nM |
| Cc1cc(C)c(CSC2=NCCN2)c(C)c1CSC1=NCCN1 [Compound 1] |  | 2300 ± 200 | Kd (ShhN-EGFP; [3]): 7000 ± 800 nM |
| N#Cc1c(N)nc(NCCCN2CCOCC2)nc1-c1ccc(Cl)cc1 [Compound 7_3d11] |  | 1200 ± 200 |  |
